Measured values: PMC9067978, “Design, synthesis, and molecular docking studies of novel pomalidomide-based PROTACs as potential anti-cancer agents targeting EGFR^WT and EGFR^T790M” (Journal of Enzyme Inhibition and Medicinal Chemistry, 2022)
Entries after “also recorded” stand apart in the source; their conditions may differ.

What was measured:
[1] = system: MCF-7; assay: MTT anti-proliferative assay, MCF-7; conditions: Homo sapiens, MCF7, read-out: IC50 MCF-7
Protocol: (§5) The anti-proliferative activity was quantified in the following way. At a density of 3–8 × 10^3 cells per well, human cancer cell lines were introduced to 96-well plates. The wells were then incubated at 37 °C for 12 hours in 5% CO2 incubator. To determine the DMSO content, the culture media was swapped with 0.1 ml of fresh medium containing graded amounts of the test compounds for each well. Incubation time for the wells was two days. The cells were then cultured in 100 µl MTT solution (5 µg ml^−1) for another 4 hours in each well.
(§6) The absorbance of each well was measured at 490 nm with an automated ELISA reader system (TECAN, CHE) after MTT-formazan crystals were dissolved in 100 µl of DMSO. The IC50 values were calculated using nonlinear regression fitting models (Graph Pad, Prism Version 5). The results were expressed as means ± SD and were based on the average of three separate, duplicate trials.

[2] = system: HepG-2; assay: MTT anti-proliferative assay, HepG-2; conditions: Homo sapiens, HepG2, read-out: IC50 HepG-2
Protocol: as §5, §6

[3] = system: HCT-116; assay: MTT anti-proliferative assay, HCT-116; conditions: Homo sapiens, HCT-116, read-out: IC50 HCT-116
Protocol: as §5, §6

[4] = biological target: T1, EGFR^WT (Homo sapiens, UniProt P00533); assay: EGFR^WT kinase inhibitory assay (HTRF); type: biochemical; conditions: ATP 1.65 µM, mean ± S.D of three experiments
T1 construct: purchased Sigma
T1 sequence (P00533 25-1210): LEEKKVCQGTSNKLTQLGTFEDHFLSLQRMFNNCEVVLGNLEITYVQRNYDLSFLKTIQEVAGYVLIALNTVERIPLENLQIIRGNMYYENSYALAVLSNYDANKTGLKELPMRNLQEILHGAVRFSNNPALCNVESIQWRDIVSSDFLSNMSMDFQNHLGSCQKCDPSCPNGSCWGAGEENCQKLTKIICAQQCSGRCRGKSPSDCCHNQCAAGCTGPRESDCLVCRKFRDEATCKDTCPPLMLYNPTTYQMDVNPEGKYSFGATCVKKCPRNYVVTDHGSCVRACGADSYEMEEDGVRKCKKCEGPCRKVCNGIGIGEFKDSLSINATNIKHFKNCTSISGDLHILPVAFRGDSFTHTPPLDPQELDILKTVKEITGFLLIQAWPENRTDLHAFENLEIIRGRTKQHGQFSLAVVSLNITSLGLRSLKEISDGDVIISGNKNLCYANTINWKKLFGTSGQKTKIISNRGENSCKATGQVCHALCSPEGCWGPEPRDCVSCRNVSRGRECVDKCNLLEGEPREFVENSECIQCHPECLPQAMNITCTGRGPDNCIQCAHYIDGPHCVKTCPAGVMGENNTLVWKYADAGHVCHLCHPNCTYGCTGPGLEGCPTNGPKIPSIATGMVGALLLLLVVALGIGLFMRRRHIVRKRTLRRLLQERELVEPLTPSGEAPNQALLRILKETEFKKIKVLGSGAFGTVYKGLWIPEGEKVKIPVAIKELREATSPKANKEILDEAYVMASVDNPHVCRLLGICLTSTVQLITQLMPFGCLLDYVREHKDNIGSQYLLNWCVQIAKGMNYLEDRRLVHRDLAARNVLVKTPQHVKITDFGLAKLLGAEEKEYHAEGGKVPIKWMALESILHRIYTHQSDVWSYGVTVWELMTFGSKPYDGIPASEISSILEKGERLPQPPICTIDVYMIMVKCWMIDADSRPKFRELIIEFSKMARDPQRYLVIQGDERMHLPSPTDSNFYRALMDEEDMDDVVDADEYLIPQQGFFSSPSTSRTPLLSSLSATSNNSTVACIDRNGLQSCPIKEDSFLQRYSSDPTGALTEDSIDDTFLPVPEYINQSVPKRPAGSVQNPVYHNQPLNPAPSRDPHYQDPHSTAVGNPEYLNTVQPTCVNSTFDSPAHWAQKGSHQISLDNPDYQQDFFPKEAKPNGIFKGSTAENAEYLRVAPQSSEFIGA
Protocol: (§1) This test used HTRF[44] assay with EGFR^WT and EGFR^T790M (Sigma). For the first 5 minutes, the evaluated compounds were incubated with EGFR^WT and/or EGFR^T790M and their substrates in the enzymatic buffer. […] The assay was performed at 37 °C for 30 minutes. The addition of EDTA-containing detection reagents halted the process. After one hour detection period, GraphPad Prism 5.0 was used to calculate the IC50 values. For each concentration, three separate trials were carried out.

[5] = biological target: T2, EGFR^T790M (Homo sapiens, UniProt P00533, T790M); assay: EGFR^T790M kinase inhibitory assay (HTRF); type: biochemical; conditions: ATP 1.65 µM, mean ± S.D of three experiments, read-out: EGFR^790M IC50
T2 construct: purchased Sigma
T2 sequence (P00533 25-1210 T790M): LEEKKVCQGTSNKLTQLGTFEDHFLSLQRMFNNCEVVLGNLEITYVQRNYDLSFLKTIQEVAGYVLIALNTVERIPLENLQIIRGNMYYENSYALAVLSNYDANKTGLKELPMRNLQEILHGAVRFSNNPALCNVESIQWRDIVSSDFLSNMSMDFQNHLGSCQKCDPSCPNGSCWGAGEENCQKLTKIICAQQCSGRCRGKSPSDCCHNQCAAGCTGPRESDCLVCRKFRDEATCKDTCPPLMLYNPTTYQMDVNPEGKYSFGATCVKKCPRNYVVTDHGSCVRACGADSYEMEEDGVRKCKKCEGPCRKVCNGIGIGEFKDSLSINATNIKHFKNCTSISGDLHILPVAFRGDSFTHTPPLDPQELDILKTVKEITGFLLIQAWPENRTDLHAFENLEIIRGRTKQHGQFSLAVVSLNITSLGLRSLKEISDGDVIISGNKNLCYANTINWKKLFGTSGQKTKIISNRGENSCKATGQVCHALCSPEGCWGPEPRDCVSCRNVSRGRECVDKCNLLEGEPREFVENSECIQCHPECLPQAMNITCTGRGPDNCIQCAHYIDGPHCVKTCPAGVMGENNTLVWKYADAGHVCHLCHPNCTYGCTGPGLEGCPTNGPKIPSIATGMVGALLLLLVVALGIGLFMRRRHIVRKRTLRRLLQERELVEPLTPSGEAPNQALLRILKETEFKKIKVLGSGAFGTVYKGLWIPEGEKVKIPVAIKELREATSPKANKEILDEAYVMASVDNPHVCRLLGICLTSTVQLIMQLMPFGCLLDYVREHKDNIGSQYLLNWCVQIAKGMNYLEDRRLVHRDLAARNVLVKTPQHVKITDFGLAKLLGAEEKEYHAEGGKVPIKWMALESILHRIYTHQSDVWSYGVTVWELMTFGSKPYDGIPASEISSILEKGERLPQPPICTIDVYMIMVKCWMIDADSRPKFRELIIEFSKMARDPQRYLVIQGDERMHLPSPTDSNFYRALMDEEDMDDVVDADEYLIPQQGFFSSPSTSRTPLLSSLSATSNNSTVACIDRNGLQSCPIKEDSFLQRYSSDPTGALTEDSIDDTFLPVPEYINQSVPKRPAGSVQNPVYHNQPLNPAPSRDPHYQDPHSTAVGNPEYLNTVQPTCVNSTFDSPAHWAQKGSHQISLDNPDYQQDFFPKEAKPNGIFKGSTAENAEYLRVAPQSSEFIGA
Protocol: as §1

[6] = system: A549; assay: MTT anti-proliferative assay, A549; conditions: Homo sapiens, A549, read-out: IC50 A549
Protocol: as §5, §6

[7] = biological target: T3, EGFR (Homo sapiens, UniProt P00533); assay: Western blotting, EGFR degradation in A549 cells; type: cell-based
T3 construct: EGFR degradation activities of compounds in A549 cells; endogenous in cells; host or cells: A549
T3 sequence (P00533 25-1210): as the sequence (P00533 25-1210) above
Protocol: Following this, the target compounds 15–21 tethering various E3 ligases ligand were chosen as representative PROTACs for further degradation study based on temporal data.
Figure 4. (A) EGFR degradation activities of compounds in A549 cells. Cells were treated for 48 h with concentration of 0.1 and 1 µM. (B) Effects of concentration-dependent EGFR degradation by compounds 15–21 in A549 cell lines. Cells were treated for 48 h with a concentration from 1 nM to 10 µM. EGFR protein was examined by Western blotting analysis and EGFR degradation rate was quantified by densitometry and normalised to the corresponding density of β-actin protein (n ¼ 3). TEXT PRINTED IN THE PICTURE: (B) Comp 15: DC50 = 43.4 nm | (B) Comp 16: DC50= 32.9 nm DOUBTS OF THE COPYIST ABOUT THIS PICTURE: Comp 15, DC50: 43.4 is small blurred print; the 3 could be 8 and the digits are not certain / Comp 16, DC50: 32.9 is small blurred print; the 3 could be 8 and the 9 could be 8 or 0
We set nine concentration gradients ranging from […] to 10 µM to determine the degradation activity of all tested compounds and calculated the DC50 (concentration that caused deletion of 50% of EGFR) values.
(§2) At a concentration of 100 nM, the time-dependent degradation activities of compounds 15–21 were also examined (Figure 5(A)).
Figure 5. (A) EGFR time-dependent degradation by compound 16 in A549 cell lines. Cells were treated with100 nM of 15–21 for indicated time points. Western blotting was used to evaluate EGFR protein, and densitometry was used to measure EGFR degradation, which was adjusted to the density of β-actin protein (n ¼2). (B) Compounds 15 and 16 have EGFR degradation and phosphorylation inhibitory action in A549 cells. The cells were exposed to concentrations of 0.1, 0.3, and 1 µM. Erlotinib were utilised for comparison. TEXT PRINTED IN THE PICTURE: (A) Comp 15: Dmax = 85 % @ 96 h; Degradation: 9 (4 h; 100 nM); Degradation: 22 (8 h; 100 nM); Degradation: 42 (12 h; 100 nM); Degradation: 83 (24 h; 100 nM); Degradation: 84 (36 h; 100 nM); Degradation: 82 (48 h; 100 nM); Degradation: 82 (72 h; 100 nM); Degradation: 85 (96 h; 100 nM) | (A) Comp 16: Dmax = 96 % @72 h; Degradation: 32 (4 h; 100 nM); Degradation: 43 (8 h; 100 nM); Degradation: 67 (12 h; 100 nM); Degradation: 69 (24 h; 100 nM); Degradation: 78 (36 h; 100 nM); Degradation: 85 (48 h; 100 nM); Degradation: 96 (72 h; 100 nM); Degradation: 94 (96 h; 100 nM) DOUBTS OF THE COPYIST ABOUT THIS PICTURE: Comp 15, Dmax: print is blurred, 85 % @ 96 h is the best reading (85 or 86) / Comp 16, Dmax: print is small and blurred, 96 % @72 h is the best reading (96 or 95; the % sign is unclear) / Comp 15, Degradation row: print is blurred, 83/84/82/82/85 are best readings (3, 5, 8 are hard to tell apart) / Comp 16, Degradation row: print is blurred, 67/69/78/85/96/94 are best readings (5, 6, 8, 9 are hard to tell apart) / The Degradation rows are printed under the blot lanes with no unit. The value 0 under the 0.1 % DMSO control lane was not assigned to any compound.
Cells were seeded in 6-well plates at 1 × 10^6 per well, incubated at 37 °C with 5% CO2 for 24 h before drug exposure. Cells were treated with different concentrations of synthesised compounds for […], then collected and suspended in lysis buffer (Beyotime) and centrifuged for 20 min at 12000 rpm, later removed the insoluble material. […] The results were detected by an enhanced chemiluminescence system (Mill-pore). […]

[8] = system: EGFR phosphorylation; assay: Western blotting, EGFR phosphorylation in A549 cells; type: cell-based, human; conditions: A549 cells, 0.1, 0.3 and 1 µM, erlotinib for comparison
Protocol: as §2
(§3) Figure 5. (A) EGFR time-dependent degradation by compound 16 in A549 cell lines. Cells were treated with100 nM of 15–21 for indicated time points. Western blotting was used to evaluate EGFR protein, and densitometry was used to measure EGFR degradation, which was adjusted to the density of β-actin protein (n ¼2). (B) Compounds 15 and 16 have EGFR degradation and phosphorylation inhibitory action in A549 cells. The cells were exposed to concentrations of 0.1, 0.3, and 1 µM. Erlotinib were utilised for comparison. […]
(§4) Cells were seeded in 6-well plates at 1 × 10^6 per well, incubated at 37 °C with 5% CO2 for 24 h before drug exposure. […] The results were detected by an enhanced chemiluminescence system (Mill-pore). […]

[9] = system: Akt phosphorylation; assay: Western blotting, Akt phosphorylation in A549 cells; type: cell-based, human; conditions: A549 cells, 0.1, 0.3 and 1 µM, erlotinib for comparison
Protocol: as §2, §3, §4

Row | SMILES | IC50 [1] | IC50 [3] | IC50 [4] | IC50 [5] | IC50 [6] | Dmax at 0.1 µM ([7]; A549, A549 cells, 100 nM, time course, reached at 96 h (15) and 72 h (16), read-out: Dmax, maximum EGFR degradation rate) | DC50 ([7]; A549 cells, 48 h, Western blotting densitometry, read-out: DC50 (concentration that caused deletion of 50% of EGFR)) | IC50 [2] | inhibition of EGFR phosphorylation, in words [8] | inhibition of Akt phosphorylation, in words [9]
1 | O=C(CSc1nc2ccccc2o1)NNCCOCCOCC(=O)Nc1cccc2c1C(=O)N(C1CCC(=O)NC1=O)C2=O (centres unmarked) [Compound 20, 2-(2-(2-(2-(2-(benzo[d]oxazol-2-ylthio)acetyl)hydrazinyl)ethoxy)ethoxy)-N-(2-(2,6-dioxopiperidin-3-yl)-1,3-dioxoisoindolin-4-yl)acetamide] | 14.3 ± 0.69 µM | 12.3 ± 0.71 µM | 770 ± 50 nM | 16.3 ± 0.69 µM | 8.27 ± 0.25 µM |  |  | 9.26 ± 0.39 µM |  | 
2 | C#Cc1cccc(Nc2ncnc3cc(OCCOC)c(OCCOC)cc23)c1 [Erlotinib, reference compound] | 21.8 ± 1.85 µM | 16.8 ± 1.65 µM |  |  | 19.3 ± 1.85 µM |  |  | 13.1 ± 1.28 µM |  | 
3 | O=C1CCC(N2C(=O)c3cccc(NC(=O)COCCOCCOCCNC(=O)c4nc5ccccc5[nH]c4=O)c3C2=O)C(=O)N1 (centres unmarked) [Compound 17, N-(2-(2-(2-(2-(2-(2,6-dioxopiperidin-3-yl)-1,3-dioxoisoindolin-4-ylamino)-2-oxoethoxy)ethoxy)ethoxy)ethyl)-3-oxo-3,4-dihydroquinoxaline-2-carboxamide] | 7.96 ± 0.35 µM | 6.29 ± 0.35 µM | 190 ± 90 nM | 6.26 ± 0.32 µM | 3.19 ± 0.19 µM |  |  | 4.09 ± 0.11 µM |  | 
4 | CN1C(=O)C(=Nc2ccc(C(=O)NNCCOCCOCC(=O)Nc3cccc4c3C(=O)N(C3CCC(=O)NC3=O)C4=O)cc2)c2ccccc21 (centres unmarked) [Compound 19, N-(2-(2,6-dioxopiperidin-3-yl)-1,3-dioxoisoindolin-4-yl)-2-(2-(2-(2-(4-(1-methyl-2-oxoindolin-3-ylideneamino)benzoyl)hydrazinyl)ethoxy)ethoxy)acetamide] | 16.3 ± 0.71 µM | 9.12 ± 0.38 µM | 3020 ± 120 nM | 14.1 ± 0.51 µM | 6.54 ± 0.32 µM |  |  | 8.26 ± 0.36 µM |  | 

The remaining molecules from weak to strong by IC50 [1], led by results:

Row | IC50 [1] | IC50 [3] | IC50 [4] | IC50 [5] | IC50 [6] | Dmax at 0.1 µM ([7]; A549, A549 cells, 100 nM, time course, reached at 96 h (15) and 72 h (16), read-out: Dmax, maximum EGFR degradation rate) | DC50 ([7]; A549 cells, 48 h, Western blotting densitometry, read-out: DC50 (concentration that caused deletion of 50% of EGFR)) | SMILES | IC50 [2] | inhibition of EGFR phosphorylation, in words [8] | inhibition of Akt phosphorylation, in words [9]
5 | 16.3 ± 0.71 µM | 13 ± 0.52 µM | 2270 ± 160 nM | 15.3 ± 0.61 µM | 7.27 ± 0.16 µM |  |  | O=C(CSc1nc2ccccc2s1)NNCCOCCOCC(=O)Nc1cccc2c1C(=O)N(C1CCC(=O)NC1=O)C2=O (centres unmarked) [Compound 21, 2-(2-(2-(2-(2-(benzo[d]thiazol-2-ylthio)acetyl)hydrazinyl)ethoxy)ethoxy)-N-(2-(2,6-dioxopiperidin-3-yl)-1,3-dioxoisoindolin-4-yl)acetamide] | 9.86 ± 0.37 µM |  | 
6 | 8.26 ± 0.25 µM | 6.79 ± 0.27 µM | 650 ± 30 nM | 8.16 ± 0.28 µM | 4.67 ± 0.13 µM |  |  | O=C1CCC(N2C(=O)c3cccc(NC(=O)COCCOCCNNC(=O)c4ccc(N=C5C(=O)Nc6ccccc65)cc4)c3C2=O)C(=O)N1 (centres unmarked) [Compound 18, N-(2-(2,6-dioxopiperidin-3-yl)-1,3-dioxoisoindolin-4-yl)-2-(2-(2-(2-(4-((2-oxoindolin-3-ylidene)amino)benzoyl)hydrazineyl)ethoxy)ethoxy)acetamide] | 6.26 ± 0.56 µM |  | 
7 | 7.89 ± 0.55 µM | 5.52 ± 0.25 µM |  |  |  |  |  | COc1cccc2c1C(=O)c1c(O)c3c(c(O)c1C2=O)C[C@@](O)(C(=O)CO)C[C@@H]3O[C@H]1C[C@H](N)[C@H](O)[C@H](C)O1 [Doxorubicin, reference compound] | 6.22 ± 0.45 µM |  | 
8 | 7.87 ± 0.31 µM | 6.19 ± 0.27 µM | 220 ± 50 nM | 6.89 ± 0.31 µM | 3.09 ± 0.15 µM | 86% | 43.4 nM | O=C1CCC(N2C(=O)c3cccc(NC(=O)COCCOCCn4nc5[nH]c6ccccc6nc-5c4=O)c3C2=O)C(=O)N1 (centres unmarked) [Compound 15, N-(2-(2,6-dioxopiperidin-3-yl)-1,3-dioxoisoindolin-4-yl)-2-(2-(2-(3-oxo-3,9-dihydro-2H-pyrazolo[3,4-b]quinoxalin-2-yl)ethoxy)ethoxy)acetamide] | 3.89 ± 0.05 µM | effectively displayed inhibitory activity | effectively displayed inhibitory activity; also recorded: comparable to erlotinib
